We go through six compounds from patent publication US12491180B2, “Application of compound in treating pneumonia” (SHENZHEN OPTIMUM BIOLOGICAL TECHNOLOGY CO., LTD., priority 2019, dated 2025).

≈ marks a conversion by molar mass, not a printed value.

Holding throughout (type): cell-based
In test [1] the test system is Enterobacter aerogenes 8193. The experiment in a line: MIC, solid dilution method. The following applies: Klebsiella aerogenes; E. ae 8193, CRE clinical isolate; MHA agar, 37° C., 16-20 hours; read-out: MIC. As to the method:
CRE Enterobacter aerogenes 8193, a total of 1 strain;
(§1) The above-mentioned glycerol-preserved strains were taken out from the −80° C. refrigerator, streaked and inoculated on MHA plates, labeled, and cultured overnight in a 37° C. incubator.
(§2) The inoculum was prepared directly from bacterial suspension, and several recovered colonies were picked and directly prepared into a bacterial suspension with a turbidity of No. 0.5 McFarland units in normal saline, and a 10-fold dilution was made during inoculation.
(§3) 6 bottles of MHA culture medium 500 mL/bottle were prepared, and the pH was adjusted to 7.2-7.4, sterilized at 121° C. for 15 min, and the medium was placed in a 55° C. water bath to keep warm.
(§4) Sterile blank petri dishes were taken, and marked with each FL drug/concentration according to 2-fold dilution, and 10 concentrations of each drug starting from 8 μg/mL were tested.
(§5) […]; 20 mL was aspirated and added to a petri dish consistent with the mark, and then 20 mL of MHA culture medium was added to the rest of the drug-containing culture medium, mixed evenly, that is, the 2-fold diluted drug-containing culture medium; 20 mL was aspirated and added to the petri dish consistent with the mark, and then diluted to the 10th concentration and the […] respectively by repeating the above-mentioned steps, and then poured into the petri dish.
(§6) 4 bacterial control petri dishes without drug were prepared at the same time as a control.
(§7) The positioning needle and the inoculation needle were installed according to the order of placement of the colony on the inoculation plate. After inoculation, a bacterial solution circle was formed on the petri dish. After the bacterial solution was absorbed by the agar, the petri dish was placed in an incubator at 37° C. for overnight incubation (16-20 hours), and then taken out.
(§8) The minimum inhibitory concentrations of the compounds against the CRE and CSE strains were determined by the solid dilution method, and the results are shown in Tables 3 and 4.

For test [2], the system named is Enterobacter cloacae 11090. In words: MIC, solid dilution method. The following applies: E. cl 11090, CRE clinical isolate, MHA agar, 37° C., 16-20 hours, read-out: MIC. As to the method: as §1, §2, §4, §6, §7
For test [3], the system named is Enterobacter cloacae 11699. The experiment in a line: MIC, solid dilution method. Particulars: E. cl 11699, CSE clinical isolate, MHA agar, 37° C., 16-20 hours, read-out: MIC. How it is done:
as §1, §2, §4, §6, §7

For test [4], the system named is Enterobacter cloacae 14653. In words: MIC, solid dilution method. Particulars: E. cl 14653, CRE clinical isolate, MHA agar, 37° C., 16-20 hours, read-out: MIC. As to the method:
as §1, §2, §4, §6, §7

Test [5] concerns Citrobacter freundii 7646. In words: MIC, solid dilution method. Particulars: C.f 7646, CSE clinical isolate, MHA agar, 37° C., 16-20 hours, read-out: MIC. How it is done:
(§9) CRE Citrobacter freundii 9434, 9484 and CSE Citrobacter freundii 7646, a total of 3 strains;
as §1, §2, §3, §4, §5, §6, §7, §8

In test [6] the test system is Citrobacter freundii 9434. The experiment in a line: MIC, solid dilution method. Particulars: C.f 9434, CRE clinical isolate, MHA agar, 37° C., 16-20 hours, read-out: MIC. As to the method: as §9, §1, §2, §3, §4, §5, §6, §7, §8
For test [7], the system named is Citrobacter freundii 9484. The experiment in a line: MIC, solid dilution method. The following applies: C.f 9484, CRE clinical isolate, MHA agar, 37° C., 16-20 hours, read-out: MIC. As to the method:
as §9, §1, §2, §3, §4, §5, §6, §7, §8

The next test has as its system 16 clinical CRE strains. The experiment in a line: MIC50, MIC90 and MIC range against 16 clinical CRE strains. Particulars: 16 clinical CRE strains; for MIC50: read-out: MIC50; for MIC90: read-out: MIC90. How it is done:
as §1, §2, §3, §4, §5, §6, §7, §8

Regarding `CC1(C)[C@H](NC(=O)/C(=N\O[C@@H](COc2ccc(C(=N)N[C@@H]3CCCNC3)cc2)C(=O)O)c2csc(N)n2)C(=O)N1OS(=O)(=O)O` [AIC499, reference compound], the MIC in test [1] turned out to be 1 µg/mL (≈ 1.5 µM); in test [2], 2 µg/mL (≈ 2.99 µM); in test [3] it was 0.06 µg/mL (≈ 0.0897 µM); in test [4], 1 µg/mL (≈ 1.5 µM); in test [5], 0.5 µg/mL (≈ 0.748 µM); in test [6], 0.5 µg/mL (≈ 0.748 µM). Besides, the MIC in test [7] is 0.25 µg/mL (≈ 0.374 µM). For the same compound, the MIC50 in the test with 16 clinical CRE strains is 2 µg/mL (≈ 2.99 µM). Moreover, the MIC90 with 16 clinical CRE strains is greater than 8 µg/mL.

For the compound `CC1(C)[C@H](NC(=O)/C(=N\O[C@@H](COc2ccc3c(c2)CN(C(=N)N(CCCN)CCCN)C3)C(=O)O)c2csc(N)n2)C(=O)N1OS(=O)(=O)O` [Compound 32], the MIC in test [1] is 0.5 µg/mL (≈ 0.675 µM); in test [2], 0.5 µg/mL (≈ 0.675 µM); in test [3], 0.03 µg/mL (≈ 0.0405 µM); in test [4], 0.25 µg/mL (≈ 0.337 µM); in test [5] it was 0.06 µg/mL (≈ 0.081 µM); in test [6], 0.06 µg/mL (≈ 0.081 µM). In addition, the MIC in test [7] was 0.03 µg/mL (≈ 0.0405 µM). In the test on 16 clinical CRE strains, the MIC range lay within 0.06 to 4 µg/mL. In addition, the MIC50 with 16 clinical CRE strains was 0.125 µg/mL (≈ 0.169 µM). In addition, in the test with 16 clinical CRE strains, the MIC90 was determined as 4 µg/mL (≈ 5.4 µM).

Regarding `CC1(C)[C@H](NC(=O)/C(=N\O[C@@H](COc2ccc3c(c2)CN(C(=N)N[C@@H]2CCCNC2)C3)C(=O)O)c2csc(N)n2)C(=O)N1OS(=O)(=O)O` [Compound 41], the MIC in test [1] turned out to be 0.5 µg/mL (≈ 0.704 µM); in test [2] it was 1 µg/mL (≈ 1.41 µM); in test [3], 0.06 µg/mL (≈ 0.0845 µM); in test [4] it was 0.5 µg/mL (≈ 0.704 µM); in test [5] it was 0.125 µg/mL (≈ 0.176 µM); in test [6], 0.125 µg/mL (≈ 0.176 µM). For the same compound, in test [7], the MIC is 0.06 µg/mL (≈ 0.0845 µM). Also, the MIC50 in the test on 16 clinical CRE strains stood at 1 µg/mL (≈ 1.41 µM). Further, the MIC90 in the test with 16 clinical CRE strains was greater than 8 µg/mL.

In the case of `CC1(C)[C@H](NC(=O)/C(=N\O[C@@H](COc2ccc3c(c2)CN(C(=N)NOCCN)C3)C(=O)O)c2csc(N)n2)C(=O)N1OS(=O)(=O)O` [Compound 43], the MIC in test [1] is 2 µg/mL (≈ 2.92 µM); in test [2], 2 µg/mL (≈ 2.92 µM); in test [3] it was 0.125 µg/mL (≈ 0.182 µM); in test [4], 1 µg/mL (≈ 1.46 µM); in test [5], 0.5 µg/mL (≈ 0.729 µM); in test [6], 0.5 µg/mL (≈ 0.729 µM). Further, the MIC in test [7] amounted to 0.125 µg/mL (≈ 0.182 µM). Also, the MIC50 in the test on 16 clinical CRE strains was found to be 2 µg/mL (≈ 2.92 µM). Further, the MIC90 with 16 clinical CRE strains is greater than 8 µg/mL.

In the case of `CC1(C)[C@H](NC(=O)/C(=N\O[C@@H](COc2ccc3c(c2)CN(C(=N)NCCN)C3)C(=O)O)c2csc(N)n2)C(=O)N1OS(=O)(=O)O` [Compound 44], the MIC in test [1] was determined as 0.5 µg/mL (≈ 0.747 µM); in test [2] it was 0.5 µg/mL (≈ 0.747 µM); in test [3], 0.03 µg/mL (≈ 0.0448 µM); in test [4], 0.25 µg/mL (≈ 0.373 µM); in test [5] it was 0.125 µg/mL (≈ 0.187 µM); in test [6] it was 0.125 µg/mL (≈ 0.187 µM). Besides, the minimal inhibitory concentration (MIC) in test [7] was found to be 0.03 µg/mL (≈ 0.0448 µM). Also, the MIC50 with 16 clinical CRE strains turned out to be 0.5 µg/mL (≈ 0.747 µM). Moreover, the MIC90 with 16 clinical CRE strains was 8 µg/mL (≈ 11.9 µM).

On to `CC1(C)[C@H](NC(=O)/C(=N\O[C@@H](COc2ccc3c(c2)CN(/C(=N\[C@@H]2CCCNC2)N[C@@H]2CCCNC2)C3)C(=O)O)c2csc(N)n2)C(=O)N1OS(=O)(=O)O` [Compound 46], for which the MIC in test [1] worked out at 1 µg/mL (≈ 1.26 µM); in test [2], 1 µg/mL (≈ 1.26 µM); in test [3], 0.125 µg/mL (≈ 0.158 µM); in test [4], 0.5 µg/mL (≈ 0.631 µM); in test [5] it was 0.125 µg/mL (≈ 0.158 µM); in test [6], 0.125 µg/mL (≈ 0.158 µM). In addition, the MIC in test [7] is 0.06 µg/mL (≈ 0.0757 µM). Besides, in the test on 16 clinical CRE strains, the MIC50 came to 1 µg/mL (≈ 1.26 µM). Moreover, the MIC90 in the test with 16 clinical CRE strains amounted to 8 µg/mL (≈ 10.1 µM).

One may read the MIC as the least concentration at which growth counts as inhibited. By MIC50 is commonly meant an inhibitory concentration at the 50% level, which refers to growth in some studies and to a panel of isolates in others. One may read the MIC90 as an inhibitory concentration at the 90% level, which refers to growth in some studies and to a panel of isolates in others.
